The values that follow come from US10463609B2, “Dendrimers for sustained release of compounds” (WAYNE STATE UNIVERSITY, priority 2007, dated 2019).

The test system of data set [1] is RCS rats. The data set can be described thus: Electroretinography after single intravitreal injection of D-FA or free FA in RCS rats. The data set is classed as in vivo, rat. The following applies: for ERG a-wave amplitude change, OD / ERG a-wave amplitude change, OS / ERG b-wave amplitude change, OD / ERG b-wave amplitude change, OS: Mean±Standard Error. On the procedure: Neuroprotective effects of dendrimer-FA (D-FA) nanodevices were determined as follows. The neuroprotective effects of intravitreally-injected D-FA nanodevices to free-FA injections and IDDIs that release free-FA at a sustained daily rate were compared. […] Here the 1 μg and 3 μg refer to the FA content in D-FA. ONL cell densities were higher for D-FA than those measured for IDDIs and free FA injections.
The efficacy was analyzed using electroretinography (ERG) and histology.
Thirty albino RCS rats aged five weeks were divided into six equal groups. The experiments were terminated at nine weeks. Thus, the efficacy was evaluated over the four-week peak period of retinal degeneration in the RCS rats. The groups were: • 1. intravitreal injection of 3.0 μg dendrimer-conjugated fluocinolone acetonide (FA) in 1.0 μL of Phosphate Buffered Solution (PBS); • 2. intravitreal injection of 1.0 μg dendrimer-conjugated FA in 1.0 μL of PBS; • 3. intravitreal injection of 3.0 μg FA in 1.0 μL of PBS; • 4. intravitreal injection of 1.0 μg FA in 1.0 μL of PBS; • 5. intravitreal injection of 1 μL of PBS (vehicle control); • 6. light-exposed unoperated controls.

In data set [2] the test system is RCS rats. In words: Quantitative histology of ONL and INL cells, FA sustained-release intravitreal drug delivery implants (IDDIs) in RCS rats. The data set is classed as in vivo, rat. The source says:
According to this Example, the steroid fluocinolone acetonide (FA) was highly neuroprotective in slowing the retinal degeneration of RCS rats when delivered via sustained-release intravitreal drug delivery implants (IDDIs).

Data set [3] relates to RCS rats. In words: ERG b-wave amplitudes, FA IDDIs in RCS rats. The data set is classed as in vivo, rat. As to the method:
In other experiments, fluocinolone acetonide preserved electroretinogram b-wave amplitudes in treated eyes. The ONL data were consistent with ERG findings in the same animals (FIG. 9A). […] Although mean b-wave amplitude values in the eyes treated with FA 0.5 μg/day were quantitatively lower than the values in the eyes treated with FA 0.2 μg/day, there was no statistically significant difference between them (p=0.113).
Quantitatively, the left eye-ERG b-wave amplitudes of the FA 0.2 μg/day-treated group at the four-week time point were greater than those of control right and left eyes and placebo group-right and left eyes. […] The fellow-eye effects were attributed to drug-crossover. This is commonly seen in small mammals in which the volume of distribution is small.

The subject of data set [4] is activated retinal microglial cells. In words: Quantitative histology of activated retinal microglial cells by ED-1 immunolabelling, FA IDDIs in RCS rats. The following applies: p<0.001. The data set is classed as in vivo, rat. On the procedure: FA suppressed neuroinflammation in RCS rats. In examining the mechanism of action of FA in preserving the ONL and ERG in the RCS rat, quantitative histological analysis of activated retinal microglial cells were performed using ED-1 immunolabelling. The photoreceptor layer and outer debris zone in RCS rats contain damaged lipid membranes that amplified photoreceptor damage by activating microglia to become phagocytic and release toxic substances such as tumor-necrosis factor alpha (TNF-α).

The nature of data set [5]: Drug release from PLGA microspheres. The following applies: ~5-10 μm PLGA microspheres containing 5% by mass of FA. The data set is classed as physicochemical. As to the method:
Drug release from PLGA microspheres was studied as follows. The drug release kinetics for free fluocinolone acetonide was analyzed for the same PLGA microspheres. For ˜5 -10 μm microspheres (containing 5% by mass of FA), the release was ˜0.5 μg/day (average) for the first thirty days, with a cumulative release of ˜30% in one month. There was 3% initial burst in the first three days. For dendrimer-FA conjugates, the initial burst may be capable of elimination due to their relatively larger size.

A short description of data set [6]: Water solubility of the conjugate. The data set is classed as physicochemical. The source says:
The glutaric acid spacer relieves the steric hindrance on the dendrimer surface, enabling intracellular drug release.
The filtrate was dialysed against DMSO for three days by replacing DMSO after each day (dialysis membrane cutoff 1000 Da) to remove unreacted compounds. The dialyzed product was dried under vacuum to obtain conjugate. ^1H-NMR was used to characterize the conjugate.

In data set [7] the test system is Royal College of Surgeons retinal degeneration model (RCS) rats. In words: Retinal biodistribution after intravitreal injection, epi-fluorescence histology of retinal cryosections, RCS rats. The data set is classed as in vivo, rat. The source says:
Retinal biodistribution of free-FITC and dendrimer-conjugated FITC (D-FITC) in healthy Sprague-Dawley (SD) and Royal College of Surgeons retinal degeneration model (RCS) rats with active neuroinflammation was studied. Epi-fluorescence histology from retinal cryosections performed 24-hours and ten days after intravitreal injection is shown in […] as follows.
The first set of results is shown in FIGS. 10A-10F, epi-fluorescence histology from retinal cryosections performed twenty four hours and ten days after intravitreal injection, showing (FIG. 10A) D-FITC distribution in normal SD rats at twenty four hours, and (FIG. 10B) D-FITC distribution in the RCS retinal neurodegeneration model at twenty four hours. The concentration of D-FITC within the outer nuclear layer (denoted by *) and debris zone are significant findings.
The D-FITC localization in the outer-retina was further analyzed by immunohistochemical labeling for activated microglial cells, astrocytes, and Mueller cells and the photoreceptors (as shown in FIGS. 11A-11D, FIGS. 12A-12B, FIGS. 13A-13D, FIG. 14, and FIGS. 15A-15B). […] There was minimal accumulation in the other cells in the inner and outer retina. FIGS. 11A-11D show Microglial uptake of D-FITC. (FIG. 11A) ED-1 immuno-histochemical labeling of inner-retinal microglial cells; (FIG. 11B) D-FITC uptake within inner retinal microglia (60×); (FIG. 11C) outer retinal ED-1 labeled activated microglia; and (FIG. 11D) D-FITC uptake within activated microglia.

[8] abbreviates: 1.0 μg intravitreal in 1.0 μL PBS, end of study vs beginning.
Where [9] appears, read: 3.0 μg intravitreal in 1.0 μL PBS, end of study vs beginning.
[10] abbreviates: FA 0.5 μg/day IDDI, treated eyes, four-week study.

Consider `CC1(C)O[C@@H]2C[C@H]3[C@@H]4C[C@H](F)C5=CC(=O)C=C[C@]5(C)[C@@]4(F)[C@@H](O)C[C@]3(C)[C@]2(C(=O)CO)O1` [FA, fluocinolone acetonide], for which, in the data set with RCS rats [1] (setting [8]), the “ERG a-wave amplitude change, OD” value was −41.9 ± 13.4%; the “ERG a-wave amplitude change, OS” value was −47.8 ± 7.7%; the “ERG b-wave amplitude change, OD” value is −64.2 ± 8.6%; the “ERG b-wave amplitude change, OS” value is reported as −55.6 ± 3.6%. Besides, the “ERG a-wave amplitude change, OD” value in the data set with RCS rats [1] (3.0 μg intravitreal in 1.0 μL PBS, end of study (9 weeks of age) vs beginning (5 weeks), loss (−)/gain (+) from initial amplitude) is recorded as −12.5 ± 28.8%. In addition, in the data set on RCS rats [1] (setting [9]), the “ERG a-wave amplitude change, OS” value is given as −10.5 ± 30.1%; the “ERG b-wave amplitude change, OD” value was −42.6 ± 3.3%; the “ERG b-wave amplitude change, OS” value is on record as −40.8 ± 3.5%. Moreover, the “end-point ERG a-wave (photoreceptor response) amplitudes” value in the data set with RCS rats [1] (at nine weeks of age, right vs left eyes) was “not true”. Moreover, the “ONL cell densities relative to inactive IDDI group” value in the data set on RCS rats [2] (FA 0.2 μg/day IDDI, treated eyes, four-week study) is on record as 4.85±0.24 times. In addition, the “ONL cell densities relative to non-surgical controls” value with RCS rats [2] (FA 0.2 μg/day IDDI, treated eyes, four-week study, nine-week RCS rats) is on record as 2.38±0.12 times. Moreover, in the data set with RCS rats [2] (setting [10]), the “ONL counts relative to eyes that received inactive IDDIs” value is 3.56±0.17 times and the “ONL counts relative to non-surgical control eyes” value was found to be 1.78±0.21 times. Also, in the data set with RCS rats [2] (FA 0.2 and 0.5 μg/day IDDIs vs inactive implants and non-surgical controls), the “inner nuclear layer cell counts between groups” value is listed as “No significant differences”. Further, in the data set with RCS rats [3] (0.2 μg/day and 0.5 μg/day FA IDDIs, p<0.001), the “mean four-week postoperative ERG b-wave amplitudes, treated eyes” value was “significantly greater than those of the unoperated control and placebo-treated eyes”. Also, the “mean ERG b-wave amplitudes of left (fellow) eyes” value in the data set on RCS rats [3] (FA 0.2 μg/day IDDI group vs placebo-treated or control eyes) is recorded as “No statistically significant differences”. In addition, the “mean ERG b-wave amplitudes of left (fellow) eyes” value in the data set on RCS rats [3] (FA 0.5 μg/day IDDI group, four weeks, cross-over effect) is “significantly different from those of right and left eyes of unoperated control animals”. Also, in data set [4] (FA 0.2 μg/day IDDI), the “activated microglial cell densities in the debris layer vs eyes with inactive IDDIs” value was “nine-fold decrease” and the “activated microglial cell densities in the debris layer vs non-surgical control eyes” value was “five-fold decrease”. For the same compound, in data set [4] (FA 0.5 μg/day IDDI), the “debris zone activated microglial density vs eyes with inactive IDDIs” value is recorded as “seven times lower” and the “debris zone activated microglial density vs non-surgical control eyes” value is recorded as “four times lower”. Moreover, the “release rate (average)” value in data set [5] (first thirty days) was around 0.5 µg/day. Moreover, the initial burst in data set [5] (first three days) is 3%. The compound also displayed a cumulative release in data set [5] (in one month) of around 30%. The solubility in water result in data set [6] is given as “not water soluble at comparable concentrations”.

Turning to fluorescein isothiocyanate [Free-FITC], in data set [7] (RCS rats, 24 hours after intravitreal injection), the “retinal distribution at 24 hours” value was “uniformly distributed”. The “retinal retention at ten days” value in data set [7] (RCS rats, ten days after intravitreal injection) is “cleared from the retina”. Besides, the “FITC fluorescence in the retinal pigment epithelium (RPE)” value in data set [7] (after intravitreal injection, 24 hours, similar at ten days) is “No FITC fluorescence was observed”.
